Where two headings read alike, the source gives them in different places.
Assays:
HT22 cells [1] = assay: Maintenance of total GSH in the presence of glutamate; format: cell-based, mouse; settings: derivative 1-10 μM, 5 mM glutamate, 24 hr
Protocol: Total intracellular glutathione was determined by a chemical assay as described (Maher, P. et al., Free Radical Research. (2006) 40 (10), 1105-1111).
(§1) Three secondary screens allowed assessment of three key activities of Fisetin that are highly relevant to stroke, as well as other neurological disorders: maintenance of glutathione (GSH), the major endogenous cellular antioxidant, inhibition of LPS-induced microglial activation, an indicator of anti-inflammatory activity and PC 12 cell differentiation, a measure of neurotrophic activity. All of these activities are relevant to the nerve cell loss seen in stroke (Gelderblom, et al., Stroke. 2009, 40 (5), 1849-1857; Pandya, et al., Cent. Nerv. Syst. Agents. Med. Chem. (2011) April 27; Lewerenz, et al., J. Neurochem. (2010) 113 (2), 502-504). […] To assess GSH maintenance, total intracellular GSH levels after a 24 hr treatment with the compound both in the absence and presence of glutamate, an inducer of GSH loss and oxidative stress (Tan, et al., Curr. Top. Med. Chem. (2001) 1, 497-506; Maher, et al., Free Radical Research. (2006) 40 (10), 1105-1111) was measured. Inhibition of LPS-induced microglial activation was determined by treating N9 mouse microglial cells with LPS alone and in the presence of the compounds and assaying NO release into the medium 24 hr later (Zheng, et al., Int. Immunopharmacol. (2008) 8, (3), 484-494). PC12 cell differentiation was determined by treating PC12 cells with the compounds and looking at neurite outgrowth after 24 hr. In all cases, Fisetin was used as a positive control (Sagara, et al., J. Neurochem. (2004) 90, 1144-1155).
(§2) Cell viability was determined after 24 hr by the MTT assay. The ability to maintain GSH (GSH) was determined by treating HT22 cells with different doses of each derivative (1-10 μM) in the presence of 5 mM glutamate. After 24 hr cell extracts were prepared and analyzed for total GSH. Fisetin (10 μM) was used as a positive control. The ability to induce PC12 cell differentiation (PC 12 diff' n) was determined by treating PC12 cells in N2 medium with different doses of each derivative (1-10 μM) for 24 hr. Differentiation was assessed by visual inspection with Fisetin (10 μM) as a positive control. Anti-inflammatory activity (microglia) was assessed in N9 microglial cells treated with bacterial lipopolysaccharide alone or in the presence different doses of each derivative (1-10 μM) for 24 hr. Fisetin was used as a positive control. TEAC values, a measure of direct antioxidant activity, were determined using the ABTS decolorization assay.

HT22 cells [2] = assay: In vitro ischemia assay (HT22 cell IAA assay, MTT); format: cell-based, mouse; settings: for Emax: HT-22, HT22 Cell IAA assay, read-out: Max Protection; for fold improvement of neuroprotective activity/potency relative to Fisetin: in vitro ischemia, HT22/IAA
Protocol: Cell viability was determined by a modified version of 3-(4,5-dimethylthiazol-2-yl)-2,5-diphenyl tetrazolium bromide (MTT) assay based on the standard procedure (Maher, et al., Brain Research. (2007), supra). Cells were seeded onto 96-well microtiter plates at a density of 5×10^3 cells per well. For the in vitro ischemia assay, the next day, the medium was replaced with DMEM supplemented with 7.5% DFCS and the cells were treated with 20 μM iodoacetic acid (IAA) alone or in the presence of the different derivatives. After 2 hr the medium in each well was aspirated and replaced with fresh medium without IAA but containing the derivatives. 20 hr later, the medium in each well was aspirated and replaced with fresh medium containing 2.5 μg/ml MTT. After 4 hr of incubation at 37° C., the cells were solubilized with 100 μl of a solution containing 50% dimethylformamide and 20% SDS (pH 4.7). The absorbance at 570 nm was measured on the following day with a microplate reader (Molecular Devices). Results were confirmed by visual inspection of the wells. Controls included compound alone to test for toxicity and compound with no cells to test for interference with the assay chemistry.
For a primary screen, an in vitro ischemia model in combination with the HT22 nerve cell line (Maher, et al., Brain Research. (2007) 1173, 117-125) was chosen. […] To induce ischemia in the HT22 cells we used iodoacetic acid (IAA), a well-known, irreversible inhibitor of the glycolytic enzyme glyceraldehyde 3-phosphate dehydrogenase (G3PDH) (Winkler, et al., Exp. Eye Res. (2003) 76, 715-723). IAA has been used in a number of other studies to induce ischemia in nerve cells (Reshef, et al., Neurosci. Lett. (1997) 238, 37-40; Sperling, et al., Neursci. Lett. (2003) 351, 137-140; Rego, et al., Neurochem. Res. (1999) 24, 351-358; Sigalov, et al., J. Mol. Neurosci. (2000) 15, 147-154; and Reiner, et al., Neurosci. Lett. (1990) 119, 175-178), including several recent screens for neuroprotective molecules (Biraboneye, et al., J. Med. Chem. (2009) 52 (14), 4358-4369; Biraboneye, et al., Chem. Med. Chem. (2010) 5 (1), 79-85). The changes following IAA treatment of neural cells are very similar to those seen in animal models of ischemic stroke (Lipton, et al., Physiol. Rev. (1999) 79, 1431-1568) and include alterations in membrane potential (Reiner, et al., Neurosci. Lett. (1990) 119, 175-178), breakdown of phospholipids (Taylor, et al., J. Pharmacol. Exp. Ther. (1996) 276, 1224-1231), loss of ATP (Winkler, et al., Exp. Eye Res. (2003) 76, 715-723; Sperling, et al., Neursci. Lett. (2003) 351, 137-140) and an increase in reactive oxygen species (ROS) (Taylor, et al., J. Pharmacol. Exp. Ther. (1996), supra; and Sperling, et al., Neursci. Lett. (2003) 351, 137-140).
as §2
For rapid screening of chemical libraries, a mouse HT22 hippocampal cell death assay induced by addition of the compound iodoacetic acid (IAA) was used. IAA is a well-known, irreversible inhibitor of the glycolytic enzyme glyceraldehyde 3-phosphate dehydrogenase (G3PDH). […]

[3] = TEAC, ABTS decolorization assay; settings: relative to Trolox
Protocol: TEAC values for the flavonoids were determined as described (Maher, P. et al., Free Radical Research. (2006), supra). Briefly, 250 μl of 2,2′-azinobis(3-ethylbenzothiazoline 6-sulfonate) (ABTS) treated overnight with potassium persulfate and diluted to an OD of ˜0.7 at 734 nm was added to 2.5 μl of a derivative solution in ethanol. The change in absorbance due to the reduction of the ABTS radical cation was measured at 734 nm for 4 min. To calculate the TEAC, the gradient of the plot of the percentage inhibition of absorbance vs. concentration for the derivative in question was divided by the gradient of the plot for Trolox.
as §2

PC12 cells = assay: PC12 cell differentiation (neurite outgrowth); format: cell-based; settings: N2 medium, derivative 1-10 μM, 24 hr, visual inspection
Protocol: PC 12 cells in N2 medium were treated with the derivatives (1-10 μM) or Fisetin (10 μM) as a positive control for 24 hr at which time the cells were scored for the presence of neurites. PC12 cells produce neurites much more rapidly when treated in N2 medium than when treated in regular growth medium. For each treatment, 100 cells in each of three separate fields were counted. Cells were scored positive if one or more neurites>1 cell body diameter in length were observed.
as §1, §2

[4] = Mus musculus, HT-22, HT22 cells, 20 μM IAA for 2 hr, viability after 24 hr by MTT, read-out: EC50 in vitro ischemia
[5] = Mus musculus, HT-22, HT22 cells, 20 μM IAA, read-out: HT22 Cell IAA assay EC50
[6] = HT22 cells, 20 μM IAA, read-out: HT22 Cell IAA assay EC50

Row | Structure (SMILES) | GSH (ability to maintain GSH) (HT22 cells [1]) | EC50 (HT22 cells [2]; [4]) [nM] | TEAC [3] | PC12 diff'n (ability to induce PC12 cell differentiation) (PC12 cells) | EC50 (HT22 cells [2]; [5]) [nM] | Emax (HT22 cells [2]; Mus musculus) [%] | EC50 (HT22 cells [2]; [6]) [nM] | EC50 in vitro ischemia (μM) (HT22 cells [2]; HT22 cells, 20 μM IAA for 2 hr, viability after 24 hr by MTT) | fold improvement of neuroprotective activity/potency relative to Fisetin (HT22 cells [2]) [fold]
1 | CN(C)c1ccc(-c2cc(=O)c3ccc4ccccc4c3o2)cc1 [CMS-120, 2-(4-(dimethylamino)phenyl)-4H-benzo[h]chromen-4-one] | no | 250 | 0.24 | no |  |  |  |  | 
2 | COc1ccc(/C=C/C(=O)c2cc(C)c(C)cc2O)cc1O [CMS-088, (E)-1-(2-hydroxy-4,5-dimethylphenyl)-3-(3-hydroxy-4-methoxyphenyl)prop-2-en-1-one] | no | 200 | 0.12 | no |  |  |  |  | 
3 | O=c1c(O)c(-c2ccc(N3CCCC3)cc2)oc2c1ccc1ccccc12 [CMS-114, 3-hydroxy-2-(4-(pyrrolidin-1-yl)phenyl)-4H-benzo[h]chromen-4-one] | no | 70 | 1.44 | yes | 71 | 74 |  |  | 
4 | O=c1c(O)c(-c2ccc(O)c(O)c2)oc2ccc3ccccc3c12 [CMS-041, 3-(3,4-dihydroxyphenyl)-2-hydroxy-1H-benzo[h]chromen-1-one] | no | 250 | 1.26 | yes |  |  |  |  | 
5 | Cc1cc2oc(-c3ccc(O)c(O)c3)c(O)c(=O)c2cc1C [CMS-027, 2-(3,4-dihydroxyphenyl)-3-hydroxy-6,7-dimethyl-4H-chromen-4-one] | no | 500 | 1.89 | no |  |  |  |  | 
6 | CC(C)c1ccc(O)c(C(=O)/C=C/c2ccc(O)c(O)c2)c1 [CMS-129, (E)-3-(3,4-dihydroxyphenyl)-1-(2-hydroxy-5-isopropylphenyl)prop-2-en-1-one] |  |  |  |  | ≤ 100 | 81 | 80 |  | 
7 | O=c1cc(-c2ccc(N3CCCC3)cc2)oc2c1ccc1ccccc12 [CMS-115, 2-(4-(pyrrolidin-1-yl)phenyl)-4H-benzo[h]chromen-4-one] | no | 200 | 0.03 | no |  |  |  |  | 
8 | COc1ccc(-c2cc(OC)c3ccccc3n2)cc1O [CMS-001, 4-methoxy-2-(3-hydroxy, 4-methoxyphenyl) quinoline] | no |  | 0.24 | no |  |  |  | no | 
9 | COc1cc(-c2cc(OC)c3ccccc3n2)ccc1O [CMS-017, 4-methoxy-2-(4-hydroxy, 3-methoxyphenyl) quinoline] | no | 500 | 0.15 | no |  |  |  |  | 
10 | CC(C)Oc1cc(-c2ccc(O)cc2O)nc2ccccc12 [CMS-084, 4-isopropoxy-2-(2,4-dihydroxyphenyl) quinoline] | no | 210 | 0.27 | no | 210 |  |  |  | 
11 | COc1cc(-c2oc3c(ccc4ccccc43)c(=O)c2O)ccc1N1CCCC1 [CMS-139, 3-hydroxy-2-(3-methoxy-4-(pyrrolidin-1-yl)phenyl)-4H-benzo[h]chromen-4-one] |  |  |  |  | ≤ 100 | 92 | 50 |  | 
12 | O=C1/C(=C/c2ccc(O)c(O)c2)Oc2cc(O)ccc21 [PM-014] |  |  |  |  | 49 |  |  |  | 
13 | O=c1cc(-c2ccc(O)c(O)c2)oc2ccccc12 [PM-001] |  |  |  |  | 500 |  |  |  | 6
14 | COc1cc(-c2oc3cc(C)c(C)cc3c(=O)c2O)ccc1CCl [CMS-078, 2-(4-(chloromethyl)-3-methoxyphenyl)-3-hydroxy-6,7-dimethyl-4H-chromen-4-one] |  |  |  |  | 134 |  |  |  | 
15 | O=c1cc(-c2ccc(O)c(O)c2)oc2ccc3ccccc3c12 [PM-003] |  |  |  |  | 80 |  |  |  | ~40
16 | O=C(/C=C/c1ccc(N2CCCC2)c(O)c1)c1ccc2ccccc2c1O [CMS-138, (E)-3-(3-hydroxy-4-(pyrrolidin-1-yl)phenyl)-1-(1-hydroxynaphthalen-2-yl)prop-2-en-1-one] |  |  |  |  | 70 | 72 |  |  | 
17 | COc1cc(/C=C/C(=O)c2ccc3ccccc3c2O)ccc1N1CCCC1 [CMS-137, (E)-1-(1-hydroxynaphthalen-2-yl)-3-(3-methoxy-4-(pyrrolidin-1-yl)phenyl)prop-2-en-1-one] |  |  |  |  | 85 | 75 |  |  | 
